Reference: ChEMBL document CHEMBL4052616, “Isoniazid derivatives and their anti-tubercular activity” (Eur J Med Chem, 2017)
Converted amounts (≈) assume the structure as drawn.

Tests used:
[1] = tested on: Mycobacterium tuberculosis; test: Antimycobacterial activity against Mycobacterium tuberculosis clinical isolate 35829 by broth dilution method; format: functional
[2] = tested on: Mycobacterium tuberculosis; test: Antimycobacterial activity against Mycobacterium tuberculosis infected in C57BL/6 mouse assessed as reduction in colony forming units per lung at 100 mg/kg administered via gavage for 2 days measured last post dose; format: functional
[3] = tested on: Mycobacterium tuberculosis; test: Antimycobacterial activity against Mycobacterium tuberculosis clinical isolate 1889 by broth dilution method; format: functional
[4] = tested on: Mycobacterium tuberculosis; test: Potency index, ratio of isoniazid MIC to compound MIC for Mycobacterium tuberculosis clinical isolate 303; format: functional
[5] = tested on: Mycobacterium tuberculosis; test: Potency index, ratio of isoniazid MIC to compound MIC for Mycobacterium tuberculosis clinical isolate 35829; format: functional
[6] = tested on: Mycobacterium tuberculosis; test: Antimycobacterial activity against Mycobacterium tuberculosis clinical isolate 303 by broth dilution method; format: functional
[7] = tested on: Mycobacterium tuberculosis; test: Antimycobacterial activity against Mycobacterium tuberculosis Erdman ATCC 35801 by broth dilution method; format: functional
[8] = tested on: Mycobacterium tuberculosis; test: Potency index, ratio of isoniazid MIC to compound MIC for Mycobacterium tuberculosis clinical isolate 1889; format: functional
[9] = tested on: Mycobacterium tuberculosis; test: Growth inhibition of Mycobacterium tuberculosis H37Rv ATCC 27294 measured after 5 to 8 days; format: functional
[10] = tested on: Mycobacterium tuberculosis; test: Antimycobacterial activity against Mycobacterium tuberculosis H37Rv ATCC 27294 measured after 5 to 8 days; format: functional
[11] = tested on: Mycobacterium tuberculosis; test: Antimycobacterial activity against Mycobacterium tuberculosis H37Rv after 5 days by microplate alamar blue assay; format: functional; settings: 120 h
[12] = tested on: Mycobacterium tuberculosis; test: Antitubercular activity against Mycobacterium tuberculosis H37Rv; format: functional
[13] = Inhibition of DNA gyrase (unknown origin)
[14] = tested on: Mycobacterium tuberculosis; test: Antimycobacterial activity against Mycobacterium tuberculosis H37Rv by NCCLS method; format: functional
[15] = tested on: Mycobacterium tuberculosis; test: Potency index, ratio of pyrazinamide MIC to compound MIC for Mycobacterium tuberculosis H37Rv; format: functional
[16] = tested on: Mycobacterium tuberculosis; test: Antitubercular activity against Mycobacterium tuberculosis H37Rv after 10 days by tube dilution method; format: functional; settings: 240 h
[17] = tested on: Mycobacterium tuberculosis; test: Antimycobacterial activity against Mycobacterium tuberculosis H37Rv ATCC 27294 at < 0.1 ug/mL by microplate alamar blue assay; format: functional
Mycobacterium avium = test: Antimycobacterial activity against Mycobacterium avium 330/88 measured after 14 to 21 days by micromethod; format: functional
[18] = tested on: Mycobacterium tuberculosis; test: Antimycobacterial activity against Mycobacterium tuberculosis 331/88 after 14 to 21 days by micromethod; format: functional
[19] = tested on: Mycobacterium tuberculosis; test: Antimycobacterial activity against Mycobacterium tuberculosis H37Rv after 10 to 12 days by serial dilution method; format: functional
[20] = tested on: Mycobacterium tuberculosis; test: Antimycobacterial activity against Bovin sensitive Mycobacterium tuberculosis measured after six weeks; format: functional
[21] = tested on: Mycobacterium tuberculosis; test: Antimycobacterial activity against human sensitive Mycobacterium tuberculosis measured after six weeks; format: functional

`Cc1ccc(C)n1NC(=O)c1ccccc1` gave an MIC [1] of 4 to 8 mg/L (≈ 18.7 to 37.3 µM), an Activity [2] of 1.5 log10CFU and an MIC [3] of 4 to 8 mg/L (≈ 18.7 to 37.3 µM). It also gave a Ratio [4] of 2, a Ratio [5] of 2 and an MIC [6] of 4 to 8 mg/L (≈ 18.7 to 37.3 µM). For the same compound, the MIC [7] was 3.2 mg/L (≈ 14.9 µM) and the Ratio [8] was 2.

In the case of `CCn1cc(C(=O)O)c(=O)c2cc(F)c(N3CCN(CN4C(=O)/C(=N\NC(=O)c5ccncc5)c5cc(Cl)ccc54)CC3)cc21`, the “growth inhibition (GI)” value [9] is reported as 99% and the MIC [10] is reported as 6.25 to 12.5 mg/L (≈ 9.89 to 19.8 µM).

In the case of `O=C(NN1C(=O)C(Cl)C1c1ccccc1O)c1ccncc1` (centres undefined), the MIC [11] is reported as 0.62 mg/L (≈ 1.95 µM).

Work on `COc1cc(C2C(Cl)C(=O)N2NC(=O)c2ccncc2)ccc1O` (centres undefined) yielded an MIC [11] of 0.31 mg/L (≈ 0.891 µM).

With `O=C(NN1C(=O)C(Cl)C1c1ccc([N+](=O)[O-])cc1)c1ccncc1` (centres undefined) the MIC [11] was 5 mg/L (≈ 14.4 µM).

`O=C(NN1C(=O)C(Cl)C1c1cc2cc(Br)ccc2nc1Cl)c1ccncc1` (centres undefined) showed an MIC [12] of 12.5 mg/L.

In the case of `C/C(=N\NC(=O)c1ccncc1)c1ccc(N)cc1`, the MIC [12] is reported as 0.23 µM.

Compound `COc1c(N2CCN(CN3C(=O)/C(=N\NC(=O)c4ccncc4)c4ccccc43)C(C)C2)c(F)cc2c(=O)c(C(=O)O)cn(C3CC3)c12` (centres undefined) has an MIC [12] of 0.2 mg/L and an IC50 [13] of 4 mg/L (≈ 6.12 µM).

In the case of `Cc1c(C(=O)NNC(=O)c2ccncc2)nn(-c2ccc(Cl)cc2Cl)c1-c1ccccc1`, the MIC [14] is reported as 25 mg/L (≈ 53.6 µM) and the Ratio [15] is reported as 4.

`COc1nc2ccccc2cc1C1C(Cl)C(=O)N1NC(=O)c1ccncc1` (centres undefined) showed an MIC [12] of 3.12 to 6.25 mg/L.

In the case of `CCC(CO)Nc1nc(Cl)nc(NNC(=O)c2ccncc2)n1` (centres undefined), the MIC [16] is reported as 20 mg/L (≈ 59.2 µM).

In the case of `C[C@]12CC/C(=N\NC(=O)c3ccncc3)C[C@@H]1CC[C@@H]1[C@@H]2CC[C@]2(C)/C(=N/NC(=O)c3ccncc3)CC[C@@H]12`, the “inhibition (INH)” value [17] is reported as greater than 95%.

`CCCCCCCCc1ccc(NC(=O)NNC(=O)c2ccncc2)cc1` showed an MIC (Mycobacterium avium) of 1 to 2 µM (≈ 0.368 to 0.737 µg/mL) and an MIC [18] of 1 to 2 µM (≈ 0.368 to 0.737 µg/mL).

With `C[C@]12CC[C@H]3[C@@](CC[C@@H]4[C@]3(C)CCC[C@@]4(C)C(=O)O)(CC1=O)C2` the MIC [19] was 50 mg/L (≈ 157 µM).

With `COc1ccc(C2C(Cl)C(=O)N2NC(=O)c2ccncc2)cc1` (centres undefined) the MIC [11] was 0.31 to 5 mg/L (≈ 0.934 to 15.1 µM).

With `C=CCN1C(=O)/C(=N\NC(=O)c2ccncc2)c2ccccc21` the MIC [20] was 2.7 to 3.5 mg/L (≈ 8.81 to 11.4 µM) and the MIC [21] was 2.7 to 3.5 mg/L (≈ 8.81 to 11.4 µM).

For `C=C1C[C@]23CC[C@@H]4[C@](C)(CCC[C@@]4(C)C(=O)NNc4ccncc4)[C@H]2CC[C@]1(O[C@@H]1O[C@H](COC(C)=O)[C@@H](OC(C)=O)[C@H](OC(C)=O)[C@H]1O[C@@H]1O[C@H](COC(C)=O)[C@@H](OC(C)=O)[C@H](OC(C)=O)[C@H]1O)C3`, the MIC [19] was 5 mg/L (≈ 5.07 µM).

Work on `COc1nc2ccc(Br)cc2cc1C1C(Cl)C(=O)N1NC(=O)c1ccncc1` (centres undefined) yielded an MIC [12] of 3.12 to 6.25 mg/L.

For `O=C(NN1C(=O)C(Cl)C1c1ccco1)c1ccncc1` (centres undefined), the MIC [11] was 1.25 mg/L (≈ 4.29 µM).

Compound `O=C(NN1C(=O)C(Cl)C1c1cc2cc(Cl)ccc2nc1Cl)c1ccncc1` (centres undefined) has an MIC [12] of 12.5 mg/L.

`O=C(CNNC(=O)c1ccncc1)COc1ccc(/C=C2\SC(=O)NC2=O)cc1` showed an MIC [12] of 50 to 100 mg/L.

In the case of `C=C1C[C@]23CC[C@@H]4[C@](C)(CCC[C@@]4(C)C(=O)O[C@@H]4O[C@H](CO)[C@@H](O)[C@H](O)[C@H]4O)[C@H]2CC[C@]1(O[C@@H]1O[C@H](CO)[C@@H](O)[C@H](O)[C@H]1O[C@@H]1O[C@H](CO)[C@@H](O)[C@H](O)[C@H]1O)C3`, the MIC [19] is reported as 7.5 mg/L (≈ 9.32 µM).
